Patent US8946205B2, “1,2,4-triazolo[4,3-a]pyridine derivatives and their use as positive allosteric modulators of mGluR2 receptors” (Janssen Pharmaceuticals, Inc., priority 2009, dated 2015)
Read-outs that look alike come from different tables or passages of the source.

Columns and labels:
rats = assay: Sleep wake electroencephalography (SW-EEG) in rats; type: in vivo
Description: On the day of experiments, the mice were brought into the procedural room. They were housed individually and allowed to acclimate for at least a half hour prior to testing. Although the studies were conducted during the light cycle (from 8:00 to 16:00 h), the procedure room was only sparsely lit (3 to 30 LUX) to provide better contrast for the video tracking. Local lighting was used for the injection procedures. During each trial, an individual mouse was placed in an open field arena (grey PVC cylinder with a height of 40 cm and a diameter of 22.5 cm). Each arena was placed on an infrared LED (8×8 LEDs)-lit box (white PVC squared box; 40×40 cm^2; height 12.5 cm). Each mouse was placed in the center of the arena and allowed to explore freely for 30 min. After each trial, the arena was cleaned with a wet and subsequently with a dry cleaning cloth. An infrared sensitive tube camera and a white light source (in arena: 4-7 LUX) were mounted to the ceiling above the observation chamber to record and input activity to a computer. Animal behavior was recorded and analyzed using the Noldus Ethovision XT Video Tracking System (Version 3.1; Noldus, Wageningen, The Netherlands). The total distance traveled (cm) was calculated. Data were then exported to data management systems for further analysis and reporting. Phencyclidine (PCP)-Induced Hyperlocomotion in Mice Test compound or solvent was administered at a pre-defined time before measurement (standard: 30 min) to male NMRI mice that were challenged with phencyclidine (PCP; 5 mg/kg, s.c.) 30 min before measurement. Activity was measured for a period of 30 min. Criterion for drug-induced inhibition of hyperlocomotion: total distance<5500 counts (3.9% false positives in controls; n=154). […] Latency to avoidance was recorded. […] Sleep Wake Electroencephalography (SW-EEG) in Rats SW-EEG analyses are a highly sensitive read-out of a compound's central functional activity that may provide additional insight in the potential therapeutic application (i.e. via drug classification fingerprinting). […]

human mGluR2 receptor = target: T1, human mGluR2 receptor (Homo sapiens, UniProt Q14416); assay: [35S]GTPγS binding assay (PAM assay, membranes from CHO cells transfected with the human mGluR2 receptor); type: biochemical; conditions: in presence of glutamate at EC20; pEC50 = -log EC50 (mol/L); read-out: GTPγS-hR2 PAM pEC50 (converted)
T1 construct: expressed in transfected cells; host or cells: CHO cells (membranes)
Description: The [^35S]GTPγS binding assay is a functional membrane-based assay used to study G-protein coupled receptor (GPCR) function whereby incorporation of a non-hydrolysable form of GTP, [^35S]GTPγS (guanosine 5′-triphosphate, labelled with […] ^35S), is measured. The G-protein α subunit catalyzes the exchange of guanosine 5′-diphosphate (GDP) by guanosine triphosphate (GTP) and on activation of the GPCR by an agonist, [^35S]GTPγS, becomes incorporated and cannot be cleaved to continue the exchange cycle (Harper (1998) Current Protocols in Pharmacology 2.6.1-10, John Wiley & Sons, Inc.). […] Here we describe the use of the [^35S]GTPγS binding assay using membranes from cells transfected with the human mGluR2 receptor and adapted from Schaffhauser et al. ((2003) Molecular Pharmacology 4:798-810) for the detection of the positive allosteric modulation (PAM) properties of the compounds of this invention.
CHO-cells were cultured to pre-confluence and stimulated with 5 mM butyrate for 24 h, prior to washing in PBS, and then collected by scraping in homogenisation buffer (50 mM Tris-HCl buffer, pH 7.4, 4° C.). Cell lysates were homogenized briefly using an ultra-turrax homogenizer. The homogenate was centrifuged at 16,000 RPM (Sorvall RC-5C plus rotor SS-34) for 10 minutes and the supernatant discarded. The pellet was resuspended in 5 mM Tris-HCl, pH 7.4 and centrifuged again (18,000 RPM, 20 min, 4° C.). The final pellet was resuspended in 50 mM Tris-HCl, pH 7.4 and stored at −80° C. in appropriate aliquots before use. Protein concentration was determined by the Bradford method (Bio-Rad, USA) with bovine serum albumin as standard.
Measurement of mGluR2 positive allosteric modulatory activity of test compounds was performed as follows. Test compounds and glutamate were diluted in assay buffer containing 10 mM HEPES acid, 10 mM HEPES salt, pH 7.4, 100 mM NaCl, 3 mM MgCl2 and 10 μM GDP. Human mGlu2 receptor-containing membranes were thawed on ice and diluted in assay buffer supplemented with 14 μg/ml saponin. Membranes were pre-incubated with compound alone or together with a predefined (˜EC20) concentration of glutamate (PAM assay) for 30 min at 30° C. After addition of [^35S]GTPγS (f.c. 0.1 nM) microplates were shaken briefly and further incubated to allow [^35S]GTPγS incorporation on activation (30 minutes, 30° C.). Final assay mixtures contained 7 μg of membrane protein in 10 mM HEPES acid, 10 mM HEPES salt, pH 7.4, 100 mM NaCl, 3 mM MgCl2,10 μM GDP and 10 μg/ml saponin. Total reaction volume was 200 μl. Reactions were terminated by rapid filtration through Unifilter-96 GF/B filter plates (Packard, Meriden, Conn.) using a 96-well Packard filtermate harvester. Filters were washed 6 times with ice-cold 10 mM NaH2PO4/10 mM Na2HPO4, pH 7.4. Filters were then air-dried, and 40 μl of liquid scintillation cocktail (Microscint-O) was added to each well. Membrane-bound radioactivity was counted in a Microplate Scintillation and Luminescence Counter from Packard.
The concentration-response curves of representative compounds of the present invention—obtained in the presence of EC20 of mGluR2 agonist glutamate to determine positive allosteric modulation (PAM)—were generated using the Lexis software interface (developed at J&J). Data were calculated as % of the control glutamate response, defined as the maximal response that is generated upon addition of glutamate alone. Sigmoid concentration-response curves plotting these percentages versus the log concentration of the test compound were analyzed using non-linear regression analysis. The concentration producing half-maximal effect is then calculated as EC50. The pEC50 values below are calculated as the −log EC50 (wherein EC50 is expressed in mol/L). […]

male NMRI mice = assay: Phencyclidine (PCP)-induced hyperlocomotion in mice (video tracking); type: in vivo; conditions: for ED50: Mus musculus, sc, PCP 5 mg/kg s.c., criterion total distance <5500 counts, read-out: ED50 PCP-Inh. (inhibition of PCP-induced hyperlocomotion)
Description: On the day of experiments, the mice were brought into the procedural room. They were housed individually and allowed to acclimate for at least a half hour prior to testing. Although the studies were conducted during the light cycle (from 8:00 to 16:00 h), the procedure room was only sparsely lit (3 to 30 LUX) to provide better contrast for the video tracking. Local lighting was used for the injection procedures. During each trial, an individual mouse was placed in an open field arena (grey PVC cylinder with a height of 40 cm and a diameter of 22.5 cm). Each arena was placed on an infrared LED (8×8 LEDs)-lit box (white PVC squared box; 40×40 cm^2; height 12.5 cm). Each mouse was placed in the center of the arena and allowed to explore freely for 30 min. After each trial, the arena was cleaned with a wet and subsequently with a dry cleaning cloth. An infrared sensitive tube camera and a white light source (in arena: 4-7 LUX) were mounted to the ceiling above the observation chamber to record and input activity to a computer. Animal behavior was recorded and analyzed using the Noldus Ethovision XT Video Tracking System (Version 3.1; Noldus, Wageningen, The Netherlands). The total distance traveled (cm) was calculated. Data were then exported to data management systems for further analysis and reporting. Phencyclidine (PCP)-Induced Hyperlocomotion in Mice Test compound or solvent was administered at a pre-defined time before measurement (standard: 30 min) to male NMRI mice that were challenged with phencyclidine (PCP; 5 mg/kg, s.c.) 30 min before measurement. Activity was measured for a period of 30 min. Criterion for drug-induced inhibition of hyperlocomotion: total distance<5500 counts (3.9% false positives in controls; n=154). Conditioned Avoidance Response (CAR) Test Apparatus The apparatus consisted of an inner box surrounded by an outer box. The inner box was composed of four walls of transparent, synthetic material (length×width×height: 30×30×30 cm), an open top, and a grid floor made of 15 pairs of iron bars (2 mm diameter; 6 mm inter-bar distance). Odd and even bars were connected with a source of alternative current (1.0 mA; Coulbourn Instruments Solid State Shocker/Distributor), which could be interrupted by a switch. The outer box was composed of the same material (length×width×height: 40×40×36 cm), also with an open top, with a distance of 5 cm between the inner and outer box on all sides. To decrease the amount of environmental stimuli, three walls of the outer box were made non-transparent. The front wall was left transparent to allow the necessary inspection of the animal during the test. The upper edge of the outer and inner box served as a target for the rats on which to jump with fore- and hind-paws, respectively. Avoidance Conditioning and Selection of Animals From their arrival in the laboratory on the experimental day, male Wiga Wistar rats (230±30 g) were housed in individual cages provided with bedding material. […] Experimental Sessions The rats were tested 3 times, i.e. at 60, 90 and 120 min after the injection of test compound or solvent. Latency to avoidance was recorded. The median avoidance response obtained over the three experimental sessions for each rat were used for further calculations. […] Sleep Wake Electroencephalography (SW-EEG) in Rats SW-EEG analyses are a highly sensitive read-out of a compound's central functional activity that may provide additional insight in the potential therapeutic application (i.e. via drug classification fingerprinting). […] Internal efforts have confirmed that this effect is mGlu2 receptor-mediated, i.e. is absent in mGlu2 KO mice. Sleep abnormalities are often associated with CNS disorders; as such, the potential use of mGlu2 modulators could also have benefit in the treatment of CNS disorders in which (REM) sleep aberrations are manifested. […]

male Wiga Wistar rats = assay: Conditioned avoidance response (CAR) test in rats; type: in vivo; conditions: for ED50: Rattus norvegicus, criterion median avoidance latency >8 s
Description: On the day of experiments, the mice were brought into the procedural room. They were housed individually and allowed to acclimate for at least a half hour prior to testing. Although the studies were conducted during the light cycle (from 8:00 to 16:00 h), the procedure room was only sparsely lit (3 to 30 LUX) to provide better contrast for the video tracking. Local lighting was used for the injection procedures. During each trial, an individual mouse was placed in an open field arena (grey PVC cylinder with a height of 40 cm and a diameter of 22.5 cm). Each arena was placed on an infrared LED (8×8 LEDs)-lit box (white PVC squared box; 40×40 cm^2; height 12.5 cm). Each mouse was placed in the center of the arena and allowed to explore freely for 30 min. After each trial, the arena was cleaned with a wet and subsequently with a dry cleaning cloth. An infrared sensitive tube camera and a white light source (in arena: 4-7 LUX) were mounted to the ceiling above the observation chamber to record and input activity to a computer. Animal behavior was recorded and analyzed using the Noldus Ethovision XT Video Tracking System (Version 3.1; Noldus, Wageningen, The Netherlands). The total distance traveled (cm) was calculated. Data were then exported to data management systems for further analysis and reporting. Phencyclidine (PCP)-Induced Hyperlocomotion in Mice Test compound or solvent was administered at a pre-defined time before measurement (standard: 30 min) to male NMRI mice that were challenged with phencyclidine (PCP; 5 mg/kg, s.c.) 30 min before measurement. Activity was measured for a period of 30 min. Criterion for drug-induced inhibition of hyperlocomotion: total distance<5500 counts (3.9% false positives in controls; n=154). Conditioned Avoidance Response (CAR) Test Apparatus The apparatus consisted of an inner box surrounded by an outer box. The inner box was composed of four walls of transparent, synthetic material (length×width×height: 30×30×30 cm), an open top, and a grid floor made of 15 pairs of iron bars (2 mm diameter; 6 mm inter-bar distance). Odd and even bars were connected with a source of alternative current (1.0 mA; Coulbourn Instruments Solid State Shocker/Distributor), which could be interrupted by a switch. The outer box was composed of the same material (length×width×height: 40×40×36 cm), also with an open top, with a distance of 5 cm between the inner and outer box on all sides. To decrease the amount of environmental stimuli, three walls of the outer box were made non-transparent. The front wall was left transparent to allow the necessary inspection of the animal during the test. The upper edge of the outer and inner box served as a target for the rats on which to jump with fore- and hind-paws, respectively. Avoidance Conditioning and Selection of Animals From their arrival in the laboratory on the experimental day, male Wiga Wistar rats (230±30 g) were housed in individual cages provided with bedding material. […] Experimental Sessions The rats were tested 3 times, i.e. at 60, 90 and 120 min after the injection of test compound or solvent. Latency to avoidance was recorded. […] Sleep Wake Electroencephalography (SW-EEG) in Rats SW-EEG analyses are a highly sensitive read-out of a compound's central functional activity that may provide additional insight in the potential therapeutic application (i.e. via drug classification fingerprinting). […]

[1] = po, compound administered orally (*), read-out: ED50 CAR-Inh. (inhibition of conditioned avoidance response), administered orally

T1 sequence (Q14416 19-872): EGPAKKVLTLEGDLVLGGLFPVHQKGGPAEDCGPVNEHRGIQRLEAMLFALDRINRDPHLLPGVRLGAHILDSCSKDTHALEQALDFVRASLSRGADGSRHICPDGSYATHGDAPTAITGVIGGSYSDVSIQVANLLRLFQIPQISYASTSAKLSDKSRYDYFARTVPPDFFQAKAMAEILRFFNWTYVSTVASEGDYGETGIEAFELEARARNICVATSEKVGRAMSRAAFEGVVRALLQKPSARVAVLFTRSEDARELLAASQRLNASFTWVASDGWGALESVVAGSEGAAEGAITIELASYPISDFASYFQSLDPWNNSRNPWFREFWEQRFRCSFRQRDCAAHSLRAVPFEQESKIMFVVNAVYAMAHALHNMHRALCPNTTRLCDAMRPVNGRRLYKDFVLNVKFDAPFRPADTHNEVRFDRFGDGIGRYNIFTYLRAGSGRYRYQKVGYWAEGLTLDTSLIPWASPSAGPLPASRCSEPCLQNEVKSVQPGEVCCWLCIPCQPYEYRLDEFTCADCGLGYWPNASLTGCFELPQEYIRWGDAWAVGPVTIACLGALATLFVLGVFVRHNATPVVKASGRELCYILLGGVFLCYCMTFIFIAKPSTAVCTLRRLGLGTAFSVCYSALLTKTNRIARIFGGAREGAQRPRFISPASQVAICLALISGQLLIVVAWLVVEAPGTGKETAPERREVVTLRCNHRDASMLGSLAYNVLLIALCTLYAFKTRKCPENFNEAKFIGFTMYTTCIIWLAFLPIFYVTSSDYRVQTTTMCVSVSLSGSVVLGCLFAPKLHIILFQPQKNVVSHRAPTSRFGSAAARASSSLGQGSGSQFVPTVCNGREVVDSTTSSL

| SMILES | effect on REM sleep (rats; 3 mg/kg, p.o.) | EC50 (human mGluR2 receptor) [nM] | inhibition of PCP-induced hyperlocomotion (in words) (male NMRI mice) | ED50 (male NMRI mice) [mg/kg] | inhibition of the conditioned avoidance response (in words) (male Wiga Wistar rats) | ED50 (male Wiga Wistar rats; [1]) [mg/kg] | effect on REM sleep (rats; oral administration) | lowest active dose for decrease of REM sleep (rats; p.o.) [mg/kg] | ED50 (male Wiga Wistar rats; not marked as oral, read-out: ED50 CAR-Inh. (inhibition of conditioned avoidance response)) [mg/kg] | melting point [°C] |
| --- | --- | --- | --- | --- | --- | --- | --- | --- | --- | --- |
| N[C@@]1(C(=O)O)CS(=O)(=O)[C@H]2[C@H](C(=O)O)[C@H]21 [LY404039, reference compound] | affect REM sleep | – | – | – | – | – | – | – | – | – |
| Clc1c(-c2ccc3c(ccn3-c3cccnc3)c2)ccn2c(CC3CC3)nnc12 [Compound 17, 8-Chloro-3-cyclopropylmethyl-7-[1-(pyridin-3-yl)-1H-indol-5-yl]-[1,2,4]triazolo[4,3-a]pyridine] | – | 79.4 | inhibited | 10.7 | inhibited | 20 | dose-dependently decrease REM sleep | 10 | – | – |
| O[C@H]1CC[C@H](n2ccc3cc(-c4ccn5c(CC6CC6)nnc5c4C(F)(F)F)ccc32)CC1 [Compound 4] | – | 11.2 | inhibited | 13.2 | inhibited | ≥ 40 | – | – | 20 | 206.9 |
| Cc1ccc(-n2ccc3cc(-c4ccn5c(CC6CC6)nnc5c4Cl)cc(F)c32)cn1 [Compound 31] | – | 22.9 | inhibited | 7.1 | – | – | – | – | – | 243.8 |
| FC(F)(F)c1c(-c2ccc3c(ccn3C3CCOCC3)c2)ccn2c(CC3CC3)nnc12 [Compound 3] | – | 28.2 | – | – | – | – | – | – | – | 193.1 |
| Cc1ccc(-n2ccc3cc(-c4ccn5c(CC6CC6)nnc5c4C)ccc32)cn1 [Compound 35, 8-Methyl-3-cyclopropylmethyl-7-[1-(2-methylpyridin-5-yl)-1H-indol-5-yl]-[1,2,4]triazolo[4,3-a]pyridine] | – | 70.8 | – | – | – | – | – | – | – | 263.3 |
| CCOCc1nnc2c(C(F)(F)F)c(-c3ccc4c(ccn4-c4ccc(C)nc4)c3)ccn12 [Compound 32] | – | 17.4 | – | – | – | – | – | – | – | 163.1 |
